Data set [1] addresses T1, ABCG2 (Homo sapiens, UniProt Q9UNQ0).
T1 sequence (Q9UNQ0 1-655): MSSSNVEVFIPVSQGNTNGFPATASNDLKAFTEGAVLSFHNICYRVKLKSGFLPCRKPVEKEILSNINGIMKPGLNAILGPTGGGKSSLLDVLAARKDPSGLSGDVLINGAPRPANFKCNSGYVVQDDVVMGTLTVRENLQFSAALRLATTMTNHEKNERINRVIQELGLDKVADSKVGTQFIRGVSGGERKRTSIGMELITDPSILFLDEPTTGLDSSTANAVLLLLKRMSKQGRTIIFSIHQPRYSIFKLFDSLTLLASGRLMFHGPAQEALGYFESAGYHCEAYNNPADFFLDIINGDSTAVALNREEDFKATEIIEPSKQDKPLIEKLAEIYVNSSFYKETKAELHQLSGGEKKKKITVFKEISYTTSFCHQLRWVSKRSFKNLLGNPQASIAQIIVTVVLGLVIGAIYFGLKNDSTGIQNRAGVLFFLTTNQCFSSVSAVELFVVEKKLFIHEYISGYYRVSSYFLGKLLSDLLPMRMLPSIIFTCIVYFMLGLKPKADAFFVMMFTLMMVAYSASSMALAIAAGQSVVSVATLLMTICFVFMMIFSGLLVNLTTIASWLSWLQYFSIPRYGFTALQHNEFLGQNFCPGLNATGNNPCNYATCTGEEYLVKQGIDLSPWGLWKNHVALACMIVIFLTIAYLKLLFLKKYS
Particulars: typical ABCG2 substrates, low capacity; read-out: Km value of transport by ABCG2; cited from earlier work.

In data set [2] the target is T1, ABCG2. Briefly: inhibition of ABCG2-mediated [3H]estrone-3-sulfate transport in membrane vesicles. As to conditions: [3H]ES 500 nM, vesicle transport assay, HEK293 membrane vesicles. An excerpt: Wild-type ABCG2 cDNA was inserted into the Nhe I site and Apa I site of pcDNA3.1(+) vector plasmid (Invitrogen, Carlsbad, Calif.), with a myc-tag sequence attached at the 5′ end. To prepare membrane vesicles, HEK293 cells were transiently transfected with an expression vector for ABCG2 or an empty vector using FuGENE6 (Roche Diagnostics, Indianapolis, Ind.). Forty-eight hours later, cells were harvested and the membrane vesicles were isolated using a standard method. The uptake study of [^3H]estrone-3-sulfate (ES, 500 nM) and [^14C]urate (28 μM) was performed.
Using membrane vesicles prepared from ABCG2-expressing cells, the inhibitory effect of urate on ABCG2-mediated transport of its typical substrate, ES (estrone-3-sulfate) was examined.
The inhibitory effect on the transport of [^3H]estrone-3-sulfate (ES, 500 nM), a typical substrate of ABCG2 was examined using the vesicle transport assay system.

A further data set addresses T2, mouse Abcg2 (Mus musculus, UniProt Q7TMS5).
T2 construct: expressed in transfected cells; host or cells: HEK293 (transient transfection, myc-mAbcg2/pcDNA3.1(+)); cell membrane vesicles
T2 sequence (Q7TMS5 1-657): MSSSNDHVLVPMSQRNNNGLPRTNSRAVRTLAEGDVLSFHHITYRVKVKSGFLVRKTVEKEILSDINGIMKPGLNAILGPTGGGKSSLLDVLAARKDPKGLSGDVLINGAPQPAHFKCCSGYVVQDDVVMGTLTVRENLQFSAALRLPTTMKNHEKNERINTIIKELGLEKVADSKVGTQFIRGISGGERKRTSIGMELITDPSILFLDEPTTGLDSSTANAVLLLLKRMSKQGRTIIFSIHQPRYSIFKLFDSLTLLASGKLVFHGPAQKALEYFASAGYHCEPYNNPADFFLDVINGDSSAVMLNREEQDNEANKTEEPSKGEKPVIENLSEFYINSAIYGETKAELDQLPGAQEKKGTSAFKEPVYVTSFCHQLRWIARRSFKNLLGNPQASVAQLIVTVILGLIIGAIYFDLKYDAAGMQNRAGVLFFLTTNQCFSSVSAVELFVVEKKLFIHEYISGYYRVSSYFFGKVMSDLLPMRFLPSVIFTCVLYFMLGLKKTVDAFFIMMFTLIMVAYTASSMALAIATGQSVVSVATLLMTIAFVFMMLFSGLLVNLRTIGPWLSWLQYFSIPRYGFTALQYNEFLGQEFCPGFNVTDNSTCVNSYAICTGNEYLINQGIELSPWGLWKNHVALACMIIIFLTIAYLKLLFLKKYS
Nature of the data set: [14C]urate transport in mouse Abcg2-expressing membrane vesicles. It is filed as biochemical. As to conditions: uric acid 250 μM to 4 mM, cell membrane vesicles. From the text:
A mouse Abcg2 expression vector was constructed by amplifying a cDNA of mouse Abcg2 with a myc tag sequence attached to the N-terminus, integrating it into pGEM T-Easy Vector (Promega, Madison, Wis.), and then integrating it into a Not I site of a pcDNA3.1(+) vector via a restriction enzyme treatment.
Also, in order to confirm whether or not the mouse Abcg2 transports urate in the same manner as in human ABCG2, HEK293 cells into which the mouse myc-Abcg2 expression vector was transiently introduced were recovered, and cell membrane vesicles were prepared.
Transport experiments were performed using cell membrane vesicles and using radioisotope-labeled uric acid as a substrate. As a result, it was confirmed that the mouse Abcg2 also transports uric acid in the same manner as in human ABCG2. Also, transport experiments were performed in uric acid concentrations of 250 μM, 500 μM, 1 mM, 1.5 mM, 2 mM, and 4 mM, respectively. […] Whereby, it was shown that mouse Abcg2 is a high-capacity urate transporter which can function even in the presence of a high concentration of uric acid.

Substrate in data set [3]: O=c1[nH]c(=O)c2[nH]c(=O)[nH]c2[nH]1
Briefly: ATP-dependent [14C]urate transport in ABCG2-expressing membrane vesicles. It is filed as biochemical, human. As to conditions: other: membrane vesicles from ABCG2-expressing HEK293 cells. On the procedure:
As shown in FIG. 3 (A), an ATP-dependent urate transport was detected in ABCG2-expressing vesicles but not in control vesicles. This is the first evidence of a direct high-capacity urate transport via ABCG2. Because of a mild inhibitory effect on the ES transport, urate was assumed to be a high-capacity substrate of ABCG2. Indeed, as shown in FIG. 3 (B), ABCG2-mediated urate transport scarcely reached saturation at concentrations of 1 mM or less.
Typical ABCG2 substrates, e.g., sulfate conjugates such as ES, 4-methylumbelliferone sulfate, and E3040 sulfate, are transported by ABCG2 with low capacity (Km value of about 20 μM).

Where a name gives a salt, the structure may show the parent alone.

Take `Cc1cc(=O)oc2cc(OS(=O)(=O)O)ccc12` [4-methylumbelliferone sulfate]: the Km at ABCG2 [1] was roughly 20 µM. With `Cc1cn([C@H]2C[C@H](N=[N+]=[N-])[C@@H](CO)O2)c(=O)[nH]c1=O` [AZT, 3′-azido-3′-deoxythymidine], the “inhibitory effect on the transport of [3H]estrone-3-sulfate” value on ABCG2 [2] is given as “inhibition”. Turning to `CNc1nc2c(Cc3cccnc3)c(C)c(OS(=O)(=O)O)c(C)c2s1` [E3040 sulfate], the Km at ABCG2 [1] was roughly 20 µM.

In the case of `C[C@]12CC[C@@H]3c4ccc(OS(=O)(=O)O)cc4CC[C@H]3[C@@H]1CCC2=O` [ES, estrone-3-sulfate], at ABCG2 [2], the “inhibitory effect on the transport of [3H]estrone-3-sulfate” value is “inhibition”. Also, the Km at ABCG2 [1] is roughly 20 µM. Turning to `O=c1[nH]c(=O)c2[nH]c(=O)[nH]c2[nH]1` [urate], on mouse Abcg2, the “saturability of urate transport via mouse Abcg2” value was “no saturability”.

B1: ABCG2 (Homo sapiens) (protein)
chain: MSSSNVEVFIPVSQGNTNGFPATASNDLKAFTEGAVLSFHNICYRVKLKSGFLPCRKPVEKEILSNINGIMKPGLNAILGPTGGGKSSLLDVLAARKDPSGLSGDVLINGAPRPANFKCNSGYVVQDDVVMGTLTVRENLQFSAALRLATTMTNHEKNERINRVIQELGLDKVADSKVGTQFIRGVSGGERKRTSIGMELITDPSILFLDEPTTGLDSSTANAVLLLLKRMSKQGRTIIFSIHQPRYSIFKLFDSLTLLASGRLMFHGPAQEALGYFESAGYHCEAYNNPADFFLDIINGDSTAVALNREEDFKATEIIEPSKQDKPLIEKLAEIYVNSSFYKETKAELHQLSGGEKKKKITVFKEISYTTSFCHQLRWVSKRSFKNLLGNPQASIAQIIVTVVLGLVIGAIYFGLKNDSTGIQNRAGVLFFLTTNQCFSSVSAVELFVVEKKLFIHEYISGYYRVSSYFLGKLLSDLLPMRMLPSIIFTCIVYFMLGLKPKADAFFVMMFTLMMVAYSASSMALAIAAGQSVVSVATLLMTICFVFMMIFSGLLVNLTTIASWLSWLQYFSIPRYGFTALQHNEFLGQNFCPGLNATGNNPCNYATCTGEEYLVKQGIDLSPWGLWKNHVALACMIVIFLTIAYLKLLFLKKYS
notes: expressed in transfected cells; host or cells: HEK293 (transient transfection, pcDNA3.1(+)); isolated membrane vesicles
With B1, in data set [3], the Km was 8240 ± 1440 µM and the Vmax was 6.96 ± 0.89 nmol/min/mg (protein).

The record behind these values is US8940286B2, “Urate transporter, as well as method and kit for evaluating urate transport-related disease factor and inflammation-related disease factor, and test sample and drug” (The University of Tokyo, priority 2009, dated 2015).
